Drawing on patent US9725468B2, “C5-spiro iminothiazine dioxides as BACE inhibitors, compositions, and their use” (Merck Sharp & Dohme Corp., priority 2013, dated 2017), this text covers Ki for 35 compounds.

The target in assay [1] is T1, purified human autoBACE-2 (Homo sapiens, UniProt Q9Y5Z0).
T1 sequence (Q9Y5Z0 63-473 limits assumed): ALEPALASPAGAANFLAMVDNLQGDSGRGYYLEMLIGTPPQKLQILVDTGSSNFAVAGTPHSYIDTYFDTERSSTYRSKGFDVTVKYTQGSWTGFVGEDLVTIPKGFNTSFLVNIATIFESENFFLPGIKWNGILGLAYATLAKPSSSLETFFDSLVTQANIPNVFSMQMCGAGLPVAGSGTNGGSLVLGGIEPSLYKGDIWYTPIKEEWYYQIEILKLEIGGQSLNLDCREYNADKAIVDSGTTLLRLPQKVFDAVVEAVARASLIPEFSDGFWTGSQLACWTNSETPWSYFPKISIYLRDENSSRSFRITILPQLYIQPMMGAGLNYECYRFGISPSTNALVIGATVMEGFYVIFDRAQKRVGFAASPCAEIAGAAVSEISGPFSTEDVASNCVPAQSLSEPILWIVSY
Put plainly: BACE-2 Assay (BACE-HTRF assay). Conditions: Ki calculated from IC50 using the Cheng-Prusoff equation; QSY7-EISEVNLDAEFC-Eu-amide substrate 200 nM, pH 5.0; read-out: BACE2 Ki. The format is biochemical. The method, then: Inhibitor ICsos at purified human autoBACE-2 are determined in a time-resolved endpoint proteolysis assay that measures hydrolysis of the QSY7-EISEVNLDAEFC-Eu-amide FRET peptide substrate (BACE-HTRF assay). BACE-mediated hydrolysis of this peptide results in an increase in relative fluorescence (RFU) at 620 nm after excitation with 320 nm light. Inhibitor compounds, prepared at 3× the desired final concentration in 1×BACE assay buffer (20 mM sodium acetate pH 5.0, 10% glycerol, 0.1% Brij-35) supplemented with 7.5% DMSO are preincubated with an equal volume of autoBACE-2 enzyme diluted in 1×BACE assay buffer (final enzyme concentration 1 nM) in black 384-well NUNC plates for 30 minutes at 30° C. The assay is initiated by addition of an equal volume of the QSY7-EISEVNLDAEFC-Eu-amide substrate (200 nM final concentration, […]) prepared in 1×BACE assay buffer supplemented with 7.5% DMSO and incubated for 90 minutes at 30° C. DMSO is present at 5% final concentration in the assay. Following laser excitation of sample wells at 320 nm, the fluorescence signal at 620 nm is collected for 400 ms following a 50 μs delay on a RUBYstar HTRF plate reader (BMG Labtechnologies). Raw RFU data is normalized to maximum (1.0 nM BACE/DMSO) and minimum (no enzyme/DMSO) RFU values. IC50s are determined by nonlinear regression analysis (sigmoidal dose response, variable slope) of percent inhibition data with minimum and maximum values set to 0 and 100 percent respectively. Similar IC50s are obtained when using raw RFU data. The Ki values are calculated from the IC50 using the Cheng-Prusoff equation.

The target of assay [2] is soluble human BACE1 catalytic domain (Homo sapiens, UniProt P56817). Put plainly: BACE1 HTRF FRET Assay. The format is biochemical. To be noted: Ki calculated from IC50 using the Cheng-Prusoff equation; QSY7-APPswe-Eu substrate 200 nM, pH 5.0. An excerpt:
Na^+-Acetate pH 5.0; 1% Brij-35; Glycerol; Dimethyl Sulfoxide (DMSO); Recombinant human soluble BACE1 catalytic domain (>95% pure); APP Swedish mutant peptide substrate (QSY7-APP^swe-Eu): QSY7-EISEVNLDAEFC-Europium-amide.
A homogeneous time-resolved FRET assay can be used to determine IC50 values for inhibitors of the soluble human BACE1 catalytic domain. This assay monitors the increase of 620 nm fluorescence that resulted from BACE1 cleavage of an APPswedish APP^swe mutant peptide FRET substrate (QSY7-EISEVNLDAEFC-Europium-amide). This substrate contains an N-terminal QSY7 moiety that serves as a quencher of the C-terminal Europium fluorophore (620 nm Em). In the absence of enzyme activity, 620 nm fluorescence is low in the assay and increased linearly over 3 hours in the presence of uninhibited BACE1 enzyme. Inhibition of BACE1 cleavage of the QSY7-APP^swe-Eu substrate by inhibitors is manifested as a suppression of 620 nm fluorescence.
Varying concentrations of inhibitors at 3× the final desired concentration in a volume of 10 ul are preincubated with purified human BACE1 catalytic domain (3 nM in 10 μl) for 30 minutes at 30° C. in reaction buffer containing 20 mM Na-Acetate pH 5.0, 10% glycerol, 0.1% Brij-35 and 7.5% DSMO. Reactions are initiated by addition of 10 μl of 600 nM QSY7-APP^swe-Eu substrate (200 nM final) to give a final reaction volume of 30 μl in a 384 well Nunc HTRF plate. The reactions are incubated at 30° C. for 1.5 hours. The 620 nm fluorescence is then read on a Rubystar HTRF plate reader (BMG Labtechnologies) using a 50 millisecond delay followed by a 400 millisecond acquisition time window. Inhibitor IC50 values are derived from non-linear regression analysis of concentration response curves. Ki values are then calculated from IC50 values using the Cheng-Prusoff equation using a previously determined […] for the QSY7-APP^swe-Eu substrate at BACE1.

Structures are written as SMILES.

Sequence of soluble human BACE1 catalytic domain (P56817 75-416 limits assumed): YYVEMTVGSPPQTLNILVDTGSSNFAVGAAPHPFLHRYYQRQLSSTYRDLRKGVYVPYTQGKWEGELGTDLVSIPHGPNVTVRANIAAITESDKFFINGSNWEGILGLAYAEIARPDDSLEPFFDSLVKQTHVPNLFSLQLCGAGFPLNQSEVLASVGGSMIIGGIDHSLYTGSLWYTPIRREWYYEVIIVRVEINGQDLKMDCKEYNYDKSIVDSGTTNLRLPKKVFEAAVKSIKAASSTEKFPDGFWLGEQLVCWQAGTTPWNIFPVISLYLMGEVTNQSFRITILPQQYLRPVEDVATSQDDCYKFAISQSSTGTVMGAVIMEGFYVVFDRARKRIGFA

Broadly, the Ki is a measure of affinity in units of concentration, obtained from inhibition or displacement. Consider `CC1(C)C(=N)N[C@@]2(COCc3ccc(NC(=O)c4ncc(C(F)(F)F)cn4)cc32)CS1(=O)=O` [Example E-1], for which the Ki in assay [1] was 512 nM; in assay [2], 644 nM.

Turning to `CC1(C)C(=N)N[C@@]2(CCOc3ccc(NC(=O)c4ccc(C(F)(F)F)cn4)cc32)CS1(=O)=O` [Example C-6], the Ki in assay [1] was 50 nM; in assay [2], 10 nM.

Regarding `CC1(C)C(=N)N[C@@]2(CCCc3ccc(NC(=O)c4cnsn4)cc32)CS1(=O)=O` [Example G-2], the Ki in assay [1] was 7 nM; in assay [2], 35 nM.

Regarding `CC1(C)C(=N)N[C@@]2(COCc3ccc(NC(=O)c4cnsn4)cc32)CS1(=O)=O` [Example E-9], the figures for the Ki in assay [1] and in assay [2] were 23 nM and 171 nM, respectively.

On to `CC1(C)C(=N)N[C@@]2(CCCc3ccc(NC(=O)c4cn5cc(C#N)ccc5n4)cc32)CS1(=O)=O` [Example G-23], for which the results for the Ki in assay [1] and in assay [2] were 1120 nM and 138 nM, respectively.

On to `CC1(C)C(=N)N[C@@]2(CCOc3ccc(NC(=O)c4cnsn4)cc32)CS1(=O)=O` [Example C-4], for which the Ki was 5 nM in assay [1] and 3 nM in assay [2].

In the case of `CC1(C)C(=N)N[C@@]2(CCCc3ccc(NC(=O)c4ncc(Cl)cc4F)cc32)CS1(=O)=O` [Example G-1], the Ki was 2 nM in assay [1] and 11 nM in assay [2].

As to `Cc1cn(C)nc1C(=O)Nc1ccc2c(c1)[C@]1(CCO2)CS(=O)(=O)C(C)(C)C(=N)N1` [Example C-14], the Ki in assay [1] was 1 nM; in assay [2], 15 nM.

Consider `COc1ccc(C(=O)Nc2ccc3c(c2)[C@]2(CCO3)CS(=O)(=O)C(C)(C)C(=N)N2)nc1` [Example B-2], for which the Ki is 28 nM in assay [1] and 58 nM in assay [2].

With `CC1(C)C(=N)N[C@@]2(CCOc3ccc(NC(=O)c4ccc(OC(F)(F)F)cn4)cc32)CS1(=O)=O` [Example C-11], the results for the Ki in assay [1] and in assay [2] were 41 nM and 10 nM, respectively.

Take `CC1(C)C(=N)N[C@@]2(CCOc3ccc(NC(=O)c4ccc(F)cn4)cc32)CS1(=O)=O` [Example C-9]: the Ki was 5 nM in assay [1] and 33 nM in assay [2].

For `Cc1cc(C#N)cnc1C(=O)Nc1ccc2c(c1)[C@]1(CCC2)CS(=O)(=O)C(C)(C)C(=N)N1` [Example G-10], the Ki is 3 nM in assay [1] and 2 nM in assay [2].

Consider `COCC(=O)Nc1ccc2c(c1)[C@]1(CCO2)CS(=O)(=O)C(C)(C)C(=N)N1` [Example B-3], for which the Ki in assay [1] was 59 nM; in assay [2] it was 391 nM.

For `COc1cnc(C(=O)Nc2ccc3c(c2)[C@]2(CCC3)CS(=O)(=O)C(C)(C)C(=N)N2)c(C)n1` [Example G-9], the Ki is 17 nM in assay [1] and 64 nM in assay [2].

`CC1(C)C(=N)N[C@@]2(COCc3ccc(NC(=O)c4cnc(OCC(F)(F)F)cn4)cc32)CS1(=O)=O` [Example E-16]: the values for the Ki in assay [1] and in assay [2] were 402 nM and 101 nM, respectively.

For `CC1(C)C(=N)N[C@@]2(CCCc3ccc(NC(=O)c4ccc(C#N)cn4)cc32)CS1(=O)=O` [Example G-21], the Ki in assay [1] was 12 nM; in assay [2], 4 nM.

As for `CC1(C)C(=N)N[C@@]2(COCc3ccc(NC(=O)c4ncc(Cl)cc4F)cc32)CS1(=O)=O` [Example E-15], the figures for the Ki in assay [1] and in assay [2] were 5 nM and 37 nM, respectively.

Turning to `CC1(C)C(=N)N[C@@]2(COCc3ccc(NC(=O)c4cn5cc(C#N)ccc5n4)cc32)CS1(=O)=O` [Example E-12], the Ki was 2950 nM in assay [1] and 556 nM in assay [2].

Regarding `CC#CCOc1ccc(C(=O)Nc2ccc3c(c2)[C@]2(CCO3)CS(=O)(=O)C(C)(C)C(=N)N2)nc1` [Example C-18], the inhibition constant Ki in assay [1] was 45 nM; in assay [2], 3 nM.

On to `COc1cnc(C(=O)Nc2ccc3c(c2)[C@]2(COC3)CS(=O)(=O)C(C)(C)C(=N)N2)cn1` [Example E-22], for which the values for the Ki in assay [1] and in assay [2] were 187 nM and 334 nM, respectively.

`COc1cnc(C(=O)Nc2ccc3c(c2)[C@]2(COC3)CS(=O)(=O)C(C)(C)C(=N)N2)c(C)n1` [Example E-20]: the Ki was 60 nM in assay [1] and 218 nM in assay [2].

`COc1cnc(C(=O)Nc2ccc3c(c2)[C@]2(CCO3)CS(=O)(=O)C(C)(C)C(=N)N2)cn1` [Example C-23]: the Ki in assay [1] was 46 nM; in assay [2], 52 nM.

For `C#CCOc1ccc(C(=O)Nc2ccc3c(c2)[C@]2(CCO3)CS(=O)(=O)C(C)(C)C(=N)N2)nc1` [Example C-19], the Ki in assay [1] was 48 nM; in assay [2] it was 7 nM.

For `COc1cnc(C(=O)Nc2ccc3c(c2)[C@]2(CCO3)CS(=O)(=O)C(C)(C)C(=N)N2)c(C)n1` [Example C-21], the Ki in assay [1] is 20 nM; in assay [2] it was 40 nM.

Consider `COc1cnc(C(=O)Nc2ccc3c(c2)[C@]2(CCC3)CS(=O)(=O)C(C)(C)C(=N)N2)cn1` [Example G-11], for which the Ki in assay [1] is 57 nM; in assay [2], 92 nM.

As to `COc1ccc(C(=O)Nc2ccc3c(c2)[C@]2(CCC3)CS(=O)(=O)C(C)(C)C(=N)N2)nc1` [Example G-20], the Ki in assay [1] is 7 nM; in assay [2], 31 nM.

Regarding `COc1cnc(C(=O)Nc2ccc3c(c2)[C@]2(COC3)CS(=O)(=O)C(C)(C)C(=N)N2)c(C)c1` [Example E-11], the Ki in assay [1] was 5 nM; in assay [2], 59 nM.

`CC1(C)C(=N)N[C@@]2(CCOc3ccc(NC(=O)c4ncc(Cl)cc4F)cc32)CS1(=O)=O` [Example C-17]: the values for the Ki in assay [1] and in assay [2] were 2 nM and 8 nM, respectively.

As to `Cc1nc(C(=O)Nc2ccc3c(c2)[C@]2(CCO3)CS(=O)(=O)C(C)(C)C(=N)N2)no1` [Example C-7], the Ki in assay [1] is 4 nM; in assay [2] it was 47 nM.

As to `CC1(C)C(=N)N[C@@]2(COCc3ccc(NC(=O)c4ccc(C(F)(F)F)cn4)cc32)CS1(=O)=O` [Example E-6], the Ki is 155 nM in assay [1] and 41 nM in assay [2].

On to `CC1(C)C(=N)N[C@@]2(COCc3ccc(NC(=O)c4ccc(OC(F)(F)F)cn4)cc32)CS1(=O)=O` [Example E-3], for which the Ki in assay [1] is 175 nM; in assay [2], 50 nM.

As to `CC1(C)C(=N)N[C@@]2(CCCc3ccc(NC(=O)c4cc5ccccn5n4)cc32)CS1(=O)=O` [Example G-3], the values for the Ki in assay [1] and in assay [2] were 74 nM and 503 nM, respectively.

Turning to `CC1(C)C(=N)N[C@@]2(COCc3ccc(NC(=O)c4ccc(Cl)cn4)cc32)CS1(=O)=O` [Example D-1], the Ki in assay [1] is 7 nM; in assay [2], 23 nM.

`CC1(C)C(=N)N[C@@]2(CCCc3ccc(NC(=O)c4ccc(OCF)cn4)cc32)CS1(=O)=O` [Example G-18]: the Ki was 7 nM in assay [1] and 18 nM in assay [2].

In the case of `CC1(C)C(=N)N[C@@]2(CCOc3ccc(NC(=O)c4cnc(C(F)(F)F)cn4)cc32)CS1(=O)=O` [Example C-24], the Ki is 184 nM in assay [1] and 39 nM in assay [2].
